Reference: article PMC3311629, “Rational Design and Characterization of D-Phe-Pro-D-Arg-Derived Direct Thrombin Inhibitors” (PLoS ONE, 2012)
Square brackets hold non-standard residues; d marks the D form. Peptide text beside a SMILES is read from it. 2Thi = N[C@@H](Cc1cccs1)C(=O)O

Key:
bovine α-thrombin = bovine α-thrombin (Bos taurus, UniProt P00735); experiment: Inhibition of thrombin's hydrolytic activity towards chromogenic substrate S2238; assay type: biochemical; conditions: bovine α-thrombin 5 nM, 25°C, pH 7.46
Method: In a first instance, the inhibitory constants (Ki) for all peptides were determined using pseudo-first order kinetics. […] Substrate hydrolysis at 25°C, in sodium phosphate buffer pH 7.46, with 0.2 M NaCl and 50 µg/ml bovine serum albumin was monitored in real-time at 405 nm using a thermostated spectrophotometer (Cary), assuring that the hydrolysis of the chromogenic substrate was complete. Each kinetic trace was fitted to a first-order reaction mathematical model (At = A0*e^−kt or At = A0+a*(1−e^−kt)). The Ki was determined from the equation Ki = [I]/(kobs uninhibited/kobs inhibited−1), where kobs is the pseudo-first order rate constant and [I] is the molar inhibitor concentration. For the inhibitors that were structurally characterized, the kinetic parameters of S2238 hydrolysis and the type of inhibition were determined using 5 nM bovine α-thrombin (Sigma) and varying concentrations of both substrate (0–200 µM) and peptide inhibitors (0–50 µM). The data was fitted to a competitive enzyme inhibition model using Prism5 (GraphPad Software) and the built-in nonlinear regression global analysis package to determine the values for Ki, KM and Vmax. The goodness of fit was assessed using the built-in statistical analysis package, which enabled the calculation of R^2 values.

factor Xa = biological target: T1, factor Xa (Homo sapiens, UniProt P00742); experiment: Inhibitory activity towards factor Xa (chromogenic substrate S2222); assay type: biochemical; conditions: for Ki: factor Xa 15 nM, S2222 0.18 mM, Ki = IC50/(1+S/KM), competitive mechanism assumed; for selectivity for thrombin versus factor Xa: ratio of Ki values, thrombin vs factor Xa
T1 construct: Factor Xa (15 nM; American Diagnostica); purchased American Diagnostica
T1 sequence (P00742 235-488 limits assumed): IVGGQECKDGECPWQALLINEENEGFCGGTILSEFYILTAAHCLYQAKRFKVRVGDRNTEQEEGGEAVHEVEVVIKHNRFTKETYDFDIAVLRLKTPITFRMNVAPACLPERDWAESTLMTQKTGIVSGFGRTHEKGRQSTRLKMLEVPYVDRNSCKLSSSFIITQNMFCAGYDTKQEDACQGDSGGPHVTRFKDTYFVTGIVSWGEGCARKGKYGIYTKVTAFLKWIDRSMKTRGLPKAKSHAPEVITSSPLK
T1 sequence (P00742 41-179 partner limits assumed): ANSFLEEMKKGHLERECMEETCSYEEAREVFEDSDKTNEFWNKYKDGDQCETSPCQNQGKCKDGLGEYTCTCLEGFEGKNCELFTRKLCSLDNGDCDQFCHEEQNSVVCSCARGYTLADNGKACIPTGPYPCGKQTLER
Method: (§1) Factor Xa (15 nM; American Diagnostica) or trypsin (25 nM; Sigma) was incubated for 15 min at room temperature with 20–1600 µM of fPrI, fPrC or fPrt in 50 mM Tris-HCl pH 8.0 and 150 mM NaCl (factor Xa) or 50 mM Tris-HCl pH 8.0, 150 mM NaCl and 160 mM CaCl2 prior to substrate addition. The chromogenic substrates were S2222 (Nα-Benzoyl-L-isoleucyl-L-glutamyl-glycyl-L-arginine-4-nitroanilide hydrochloride; American Diagnostica) for factor Xa or BAPNA (Nα-Benzoyl-L-arginine-4-nitroanilide hydrochloride; Sigma) for trypsin. Substrate hydrolysis was monitored at 405 (S2222) or 410 nm (BAPNA) using a thermostated spectrophotometer (Cary). IC50 values were determined using the built in equation provided by Prism5 (GraphPad Software).

trypsin = biological target: T2, trypsin (Bos taurus, UniProt P00760); experiment: Inhibitory activity towards trypsin (chromogenic substrate BAPNA); assay type: biochemical; conditions: for selectivity for thrombin versus trypsin: ratio of Ki values, thrombin vs trypsin; for Ki: trypsin 25 nM, BAPNA 1.84 mM, Ki = IC50/(1+S/KM), competitive mechanism assumed
T2 sequence (P00760 24-246): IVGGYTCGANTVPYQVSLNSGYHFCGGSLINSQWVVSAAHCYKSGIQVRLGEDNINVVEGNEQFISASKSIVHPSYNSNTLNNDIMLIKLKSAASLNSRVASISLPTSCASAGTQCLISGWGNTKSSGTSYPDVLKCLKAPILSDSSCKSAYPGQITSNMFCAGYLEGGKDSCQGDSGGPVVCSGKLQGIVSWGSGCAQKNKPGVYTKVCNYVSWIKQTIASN
Method: as §1

α-thrombin = α-thrombin (Bos taurus, UniProt P00735); experiment: Inhibitor resistance to proteolysis by thrombin (ESI mass spectrometry); assay type: in vitro ADME; conditions: 20 µM peptide with 20 µM α-thrombin, 24 h, room temperature, pH 7.46, mass spectrometry
Method: After 24 h incubation, aliquots were removed and the reaction was quenched with 0.1% TFA. The samples were analyzed on an ESI spectrometer run in the positive mode. As the expected molecular mass of the tripeptide resulting from the hydrolysis of the D-Arg-P1′ peptide bond is 418.5 Da, spectra were acquired in the 400–1000 Da window.

Row | Structure (SMILES) | Ki (bovine α-thrombin) | other results
1 | N=C(N)NCCC[C@@H](NC(=O)[C@@H]1CCCN1C(=O)[C@H](N)Cc1ccccc1)C(=O)N[C@H](CCC(N)=O)C(N)=O [Peptide 22, D-Phe-Pro-D-Arg-D-Gln] (H-[dF]P[dR][dQ]-NH2) | 19.3 ± 0.6 µM | 
2 | N=C(N)NCCC[C@@H](NC(=O)[C@@H]1CCCN1C(=O)[C@H](N)Cc1ccccc1)C(=O)N[C@@H](CCCCN)C(N)=O [Peptide 5, D-Phe-Pro-D-Arg-Lys] (H-[dF]P[dR]K-NH2) | 66.6 ± 6.5 µM | 
3 | C[C@H](NC(=O)[C@@H](CCCNC(=N)N)NC(=O)[C@@H]1CCCN1C(=O)[C@H](N)Cc1ccccc1)C(N)=O [Peptide 1, D-Phe-Pro-D-Arg-Ala] (H-[dF]P[dR]A-NH2; N-terminus assumed) | 16.6 ± 0.8 µM | 
4 | N=C(N)NCCC[C@@H](NC(=O)[C@@H]1CCCN1C(=O)[C@H](N)Cc1ccccc1)C(=O)N1CCC[C@@H]1C(N)=O [Peptide 10, D-Phe-Pro-D-Arg-D-Pro] (H-[dF]P[dR][dP]-NH2) | 489 ± 113 µM | 
5 | N=C(N)NCCC[C@@H](NC(=O)[C@@H]1CCCN1C(=O)[C@H](N)Cc1ccccc1)C(=O)N[C@@H](CO)C(N)=O [Peptide 17, D-Phe-Pro-D-Arg-Ser] (H-[dF]P[dR]S-NH2) | 17.1 ± 0.8 µM | 
6 | N=C(N)NCCC[C@@H](NC(=O)[C@@H]1CCCN1C(=O)[C@H](N)Cc1ccccc1)C(=O)N[C@@H](Cc1c[nH]cn1)C(N)=O [Peptide 7, D-Phe-Pro-D-Arg-His] (H-[dF]P[dR]H-NH2) | 122 ± 9.5 µM | 
7 | N=C(N)NCCC[C@@H](NC(=O)[C@@H]1CCCN1C(=O)[C@H](N)Cc1ccccc1)C(=O)N1CCC[C@H]1C(N)=O [Peptide 9, D-Phe-Pro-D-Arg-Pro] (H-[dF]P[dR]P-NH2) | 89.5 ± 5.5 µM | 
8 | N=C(N)NCCC[C@@H](NC(=O)[C@@H]1CCCN1C(=O)[C@H](N)Cc1ccccc1)C(=O)N[C@@H](Cc1ccc(O)cc1)C(N)=O [Peptide 12, D-Phe-Pro-D-Arg-Tyr] (H-[dF]P[dR]Y-NH2) | 50.5 ± 3.4 µM | 
9 | N=C(N)NCCC[C@@H](NC(=O)[C@@H]1CCCN1C(=O)[C@H](N)Cc1ccccc1)C(=O)N[C@@H](Cc1ccccc1)C(N)=O [Peptide 8, D-Phe-Pro-D-Arg-Phe] (H-[dF]P[dR]F-NH2) | 250 ± 20 µM | 
10 | CC(C)[C@H](NC(=O)[C@@H](CCCNC(=N)N)NC(=O)[C@@H]1CCCN1C(=O)[C@H](N)Cc1ccccc1)C(N)=O [Peptide 13, D-Phe-Pro-D-Arg-Val] (H-[dF]P[dR]V-NH2) | 56.3 ± 1.5 µM | 
11 | CSCC[C@H](NC(=O)[C@@H](CCCNC(=N)N)NC(=O)[C@@H]1CCCN1C(=O)[C@H](N)Cc1ccccc1)C(N)=O [Peptide 28, D-Phe-Pro-D-Arg-Met] (H-[dF]P[dR]M-NH2) | 37.2 ± 2.5 µM | 
12 | N=C(N)NCCC[C@H](NC(=O)[C@@H](CCCNC(=N)N)NC(=O)[C@@H]1CCCN1C(=O)[C@H](N)Cc1ccccc1)C(N)=O [Peptide 4, D-Phe-Pro-D-Arg-Arg] (H-[dF]P[dR]R-NH2) | 91.1 ± 8.2 µM | 
13 | CC(C)C[C@H](NC(=O)[C@@H](CCCNC(=N)N)NC(=O)[C@@H]1CCCN1C(=O)[C@H](N)Cc1ccccc1)C(N)=O [Peptide 25, D-Phe-Pro-D-Arg-Leu] (H-[dF]P[dR]L-NH2) | 20.6 ± 4.5 µM | 
14 | N=C(N)NCCC[C@@H](NC(=O)[C@@H]1CCCN1C(=O)[C@H](N)Cc1ccccc1)C(=O)N[C@@H](Cc1c[nH]c2ccccc12)C(N)=O [Peptide 11, D-Phe-Pro-D-Arg-Trp] (H-[dF]P[dR]W-NH2) | 65.6 ± 7.2 µM | 
15 | N=C(N)NCCC[C@@H](NC(=O)[C@@H]1CCCN1C(=O)[C@H](N)Cc1ccccc1)C(=O)N[C@@H](CCC(=O)O)C(N)=O [Peptide 6, D-Phe-Pro-D-Arg-Glu] (H-[dF]P[dR]E-NH2) | 556 ± 89.6 µM | 
16 | N=C(N)NCCC[C@@H](NC(=O)[C@@H]1CCCN1C(=O)[C@H](N)Cc1ccccc1)C(=O)N[C@@H](CCC(N)=O)C(N)=O [Peptide 21, D-Phe-Pro-D-Arg-Gln] (H-[dF]P[dR]Q-NH2) | 43.1 ± 2.6 µM | 

Second part, led by results:

Row | Ki (bovine α-thrombin) | Structure (SMILES) | other results
17 | 2.06 ± 0.04 µM | C[C@@H](NC(=O)[C@@H](CCCNC(=N)N)NC(=O)[C@@H]1CCCN1C(=O)[C@H](N)Cc1ccccc1)C(N)=O [Peptide 2, D-Phe-Pro-D-Arg-D-Ala] (H-[dF]P[dR][dA]-NH2) | 
18 | 4.13 ± 0.24 µM | CC(C)C[C@@H](NC(=O)[C@@H](CCCNC(=N)N)NC(=O)[C@@H]1CCCN1C(=O)[C@H](N)Cc1ccccc1)C(N)=O [Peptide 26, D-Phe-Pro-D-Arg-D-Leu] (H-[dF]P[dR][dL]-NH2) | 
19 | 16.5 ± 1.5 µM | N=C(N)NCCC[C@@H](NC(=O)[C@@H]1CCCN1C(=O)[C@H](N)Cc1ccccc1)C(=O)N[C@@H](CS)C(N)=O [Peptide 19, D-Phe-Pro-D-Arg-Cys] (H-[dF]P[dR]C-NH2) | Ki (factor Xa): 41.4 ± 2.6 µM; selectivity for thrombin versus factor Xa (factor Xa): 3 fold; selectivity for thrombin versus trypsin (trypsin): 20 fold; Ki (trypsin): 377.1 ± 3.6 µM; Stability against thrombin hydrolysis (cleavage product D-Phe-Pro-D-Arg, 418.5 Da) (α-thrombin): could not be identified
20 | 12.5 ± 0.35 µM | C[C@@H](O)[C@H](NC(=O)[C@@H](CCCNC(=N)N)NC(=O)[C@@H]1CCCN1C(=O)[C@H](N)Cc1ccccc1)C(N)=O [Peptide 15, D-Phe-Pro-D-Arg-Thr] (H-[dF]P[dR]T-NH2) | 
21 | 7.7 ± 0.73 µM | CC[C@H](C)[C@H](NC(=O)[C@@H](CCCNC(=N)N)NC(=O)[C@@H]1CCCN1C(=O)[C@H](N)Cc1ccccc1)C(N)=O [Peptide 23, D-Phe-Pro-D-Arg-Ile] (H-[dF]P[dR]I-NH2) | Ki (factor Xa): 7300 µM; selectivity for thrombin versus trypsin (trypsin): 12 fold; Ki (trypsin): 90.2 ± 2.8 µM; Stability against thrombin hydrolysis (cleavage product D-Phe-Pro-D-Arg, 418.5 Da) (α-thrombin): could not be identified
22 | 5.9 ± 0.2 µM | N=C(N)NCCC[C@@H](NC(=O)[C@@H]1CCCN1C(=O)[C@H](N)Cc1ccccc1)C(=O)NCC(N)=O [Peptide 3, D-Phe-Pro-D-Arg-Gly] (H-[dF]P[dR]G-NH2) | 
23 | 7.44 ± 0.5 µM | CC[C@@H](C)[C@@H](NC(=O)[C@@H](CCCNC(=N)N)NC(=O)[C@@H]1CCCN1C(=O)[C@H](N)Cc1ccccc1)C(N)=O [Peptide 24, D-Phe-Pro-D-Arg-D-Ile] (H-[dF]P[dR][dI]-NH2) | 
24 | 2.4 ± 0.05 µM | N=C(N)NCCC[C@@H](NC(=O)[C@@H]1CCCN1C(=O)[C@H](N)Cc1ccccc1)C(=O)N[C@H](CS)C(N)=O [Peptide 20, D-Phe-Pro-D-Arg-D-Cys] (H-[dF]P[dR][dC]-NH2) | 
25 | 0.92 ± 0.08 µM | C[C@H](O)[C@@H](NC(=O)[C@@H](CCCNC(=N)N)NC(=O)[C@@H]1CCCN1C(=O)[C@H](N)Cc1ccccc1)C(N)=O [Peptide 16, D-Phe-Pro-D-Arg-D-Thr] (H-[dF]P[dR][dT]-NH2) | Ki (factor Xa): 103 ± 1.44 µM; selectivity for thrombin versus factor Xa (factor Xa): 110 fold; selectivity for thrombin versus trypsin (trypsin): 420 fold; Ki (trypsin): 389 ± 5.5 µM; Stability against thrombin hydrolysis (cleavage product D-Phe-Pro-D-Arg, 418.5 Da) (α-thrombin): could not be identified
26 | 8.16 ± 0.35 µM | N=C(N)NCCC[C@@H](NC(=O)[C@@H]1CCCN1C(=O)[C@H](N)Cc1ccccc1)C(=O)N[C@@H](Cc1cccs1)C(N)=O [Peptide 27, D-Phe-Pro-D-Arg-Thi] (H-[dF]P[dR][2Thi]-NH2) | 
27 | 12.3 ± 0.08 µM | N=C(N)NCCC[C@@H](NC(=O)[C@@H]1CCCN1C(=O)[C@H](N)Cc1ccccc1)C(=O)N[C@H](CO)C(N)=O [Peptide 18, D-Phe-Pro-D-Arg-D-Ser] (H-[dF]P[dR][dS]-NH2) | 
28 | 2.17 ± 0.6 µM | CC(C)[C@@H](NC(=O)[C@@H](CCCNC(=N)N)NC(=O)[C@@H]1CCCN1C(=O)[C@H](N)Cc1ccccc1)C(N)=O [Peptide 14, D-Phe-Pro-D-Arg-D-Val] (H-[dF]P[dR][dV]-NH2) | 
